Test results reported in US5811450A, “Thiepane compounds” (Gilead Sciences, Inc., priority 1996, dated 1998).
Where two headings read alike, the source gives them in different places.

Columns and labels:
HIV protease = biological target: T1, HIV protease (Human immunodeficiency virus type 1 group M subtype B, UniProt P04585); assay: biochemical
T1 construct: fluorometric method for measurement of HIV-protease (HIV-PR) activity utilizing a synthetic peptide substrate
Experimental: Compositions to be subjected to enzyme assay are lyophilited and diluted in DMSO to 100-1000 μM. Compositions having apparent IC50 <1 μm are diluted to 100 μM.
The assay is a fluorometric method for measurement of HIV-protease (HIV-PR) activity utilizing a synthetic peptide substrate for HIV-PR based on that described by Matayoshi, E.D.; Wang, G.T.; Krafft, G.A.; and Erickson, J.W.; Science, 1990, 247, 954-958; and Wang, G.T.; Huffker, J.A.; Matayoshi, E.; and Krafft, G.A.; Tetrahedron Lett., 1990, 165 6493-6496.
Buffer: 0.1M sodium acetate
1.0 mM ethylenediaminetetraacetic acid (EDTA)
1.0 mM dithiothreitol (DTT)
10% dimethyl sulfoxide (DMSO)
1 mg/mL bovine serum albumin (BSA) adjusted to pH 4.7
1. Prepare a solution of 2 μM HIV Protease Substrate 1 in the Assay Buffer.
2. Dispense the substrate solution into UV-pass fluorescence cuvettes (1 cm pathlength).
3. Set the excitation and emission monochromators of the spectrofluorimeter to 340 nm and 490 nm, respectively. To obtain the same kinetic constants as reported, cuvettes should be held at 37° C. throughout the assay.
4. Begin each assay by adding a small amount (<3% of the final volume) of HIV-PR-containing solution diluted tin the Assay Buffer.
5. Measure the initial rate of cleavage of fluorogenic substrate by monitoring the increase in fluorescence signal at 490 nm for 5-8 min at 37° C.
(§1) The apparent IC50 and IC50 values reported below in Table 25 were determined using the assays of Example 34 and 35, respectively. The values are indicated as follows: +=10-50 μM, ++2-10 μM, and +++<2 μM.

HIV IIIB = assay: XTT cell culture assay, cells infected with HIV IIIB; type: cell-based; details: Human immunodeficiency virus 1, IIIB, read-out: Cell Culture IC50
Experimental: The method of Weislow, O.S.; Kiser, R.; Fine, D.L.; Bader, J.; Shoemaker, R.H.; and Boyd, M.R.; I. Nat. Cancer Institute, 1989, 81(8) 577-586 was applied with the following minor modifications:. Infection of cells with HIV IIIB was performed without polybrene. Cells were distributed to Microtiter wells containing the compound of the invention 4 h after infection with HIV IIIB. 2×XTT was added at 5-6 days post infection. 20 μl 2% Triton X-100 was added 1 hour after XTT addition.
1. Add 4 ml of XTT (5 mg/ml) to 8 ml of Deficient RPMI medium (no phenol red, no serum). Mix briefly at 45° C. to dissolve XTT.
2. Add 800 μl of PMS (0.2 mg/ml) to XTT/RPMI mixture.
3. Remove […] of cell free media from each well of a 96 well plate and replace with 100 μl of the XTT/PMS mixture.
4. Incubate at 37° C. for 1.5-2 h.
5. Read absorbance at 450 nm. Absorbance values are directly proportional to cell viability.
as §1

[1] = HIV protease, fluorogenic peptide substrate, pH 4.7, 37° C., read-out: Apparent Enzyme IC50
[2] = XTT assay, HIV IIIB infected cells, XTT 5-6 days post infection

SMILES	IC50 (HIV protease; [1]) [nM]	IC50 (HIV IIIB; [2]) [nM]	also measured
[O-][S+]1CC(OCc2ccccc2)C(O)C(O)C(OCc2ccccc2)C1Cc1ccccc1 (centres unmarked) [107/3]	2000 to 10000		
[O-][S+]1CC(OCc2ccccc2)C(O)C(O)C(OCc2ccccc2)C1Cc1ccccc1 (centres unmarked) [107/4]	2000 to 10000	10000 to 50000	
N#Cc1ccccc1O[C@@H]1[C@H](O)[C@@H](O)[C@@H](Oc2ccccc2C#N)C[S@+]([O-])[C@@H]1Cc1ccccc1 [107/8]	10000 to 50000		
N#Cc1ccc(O[C@@H]2[C@H](O)[C@@H](O)[C@@H](Oc3ccc(C#N)cc3)C[S@@+]([O-])[C@@H]2Cc2ccccc2)cc1 [107/13]	10000 to 50000		
[O-][S+]1C(Cc2ccccc2)C(OCc2ccccc2)C(O)C(O)C(OCc2ccccc2)C1Cc1ccccc1 (centres unmarked) [108/17]		2000 to 10000	
O=[N+]([O-])c1cccc(CO[C@@H]2[C@H](O)[C@@H](O)C(NCc3ccccc3)C(Cc3ccccc3)S(=O)(=O)[C@@H]2Cc2ccccc2)c1 (some centres unmarked) [108/31]	< 2000	2000 to 10000	
O=S1(=O)C(Cc2ccccc2)C(NCc2ccccc2)[C@H](O)[C@@H](O)[C@@H](OCc2ccccc2)[C@H]1Cc1ccccc1 (some centres unmarked) [108/34]	< 2000	2000 to 10000	
O=S1(=O)C(Cc2ccccc2)C(NCCCc2ccccc2)[C@H](O)[C@@H](O)[C@@H](OCc2ccccc2)[C@H]1Cc1ccccc1 (some centres unmarked) [108/35]	< 2000	2000 to 10000	
O=S1(=O)[C@H](Cc2ccccc2)[C@H](OCc2ccccn2)[C@H](O)[C@@H](O)[C@@H](OCc2ccccn2)[C@H]1Cc1ccccc1 [120/8]	< 2000	2000 to 10000	
O=S1(=O)[C@H](Cc2ccccc2)[C@H](OCc2ccccn2)[C@H](O)[C@@H](O)[C@@H](OCc2cccc[n+]2[O-])[C@H]1Cc1ccccc1 [120/9]	< 2000	2000 to 10000	
Cc1nc(COC2C(O)C(O)C(OCc3csc(C)n3)C(Cc3ccccc3)S(=O)(=O)C2Cc2ccccc2)cs1 (centres unmarked) [120/22]		10000 to 50000	
O=[N+]([O-])c1cccc(COC2C(O)C(O)C(OCc3cccc([N+](=O)[O-])c3)C(Cc3ccccc3)[S+]([O-])C2Cc2ccccc2)c1 (centres unmarked) [120/44]			IC50 (HIV IIIB): < 2000 nM
O=[N+]([O-])c1cccc(COC2C(O)C(O)C(OCc3cccc([N+](=O)[O-])c3)C(Cc3ccccc3)S(=O)(=O)C2Cc2ccccc2)c1 (centres unmarked) [120/45]			IC50 (HIV IIIB): < 2000 nM
O=[N+]([O-])c1ccc(OC2C(O)C(O)C(Oc3ccc([N+](=O)[O-])cc3)C(Cc3ccccc3)S(=O)(=O)C2Cc2ccccc2)cc1 (centres unmarked) [125/17]			IC50 (HIV protease): < 2000 nM; IC50 (HIV IIIB): < 2000 nM
O=[N+]([O-])c1ccc(OC2C(O)C(O)C(Oc3ccc([N+](=O)[O-])c(C(F)(F)F)c3)C(Cc3ccccc3)S(=O)(=O)C2Cc2ccccc2)cc1C(F)(F)F (centres unmarked) [125/27]			IC50 (HIV protease): < 2000 nM

More lines, main results first:

IC50 (HIV protease; [1]) [nM]	IC50 (HIV IIIB; [2]) [nM]	SMILES	also measured
	< 2000	O=S1(=O)C(Cc2ccccc2)C(OCc2cncs2)C(O)C(O)C(OCc2cncs2)C1Cc1ccccc1 (centres unmarked) [120/25]	
	< 2000	Cc1cccc(COC2C(O)C(O)C(OCc3cccc(C)c3)C(Cc3ccccc3)S(=O)(=O)C2Cc2ccccc2)c1 (centres unmarked) [120/31]	
	< 2000	COc1cccc(COC2C(O)C(O)C(OCc3cccc(OC)c3)C(Cc3ccccc3)S(=O)(=O)C2Cc2ccccc2)c1 (centres unmarked) [120/34]	
	< 2000	Nc1cccc(COC2C(O)C(O)C(OCc3cccc(N)c3)C(Cc3ccccc3)S(=O)(=O)C2Cc2ccccc2)c1 (centres unmarked) [120/46]	
< 2000		CN(C)c1nc(CO[C@@H]2[C@H](O)[C@@H](O)[C@@H](OCc3csc(N(C)C)n3)[C@@H](Cc3ccccc3)S(=O)(=O)[C@@H]2Cc2ccccc2)cs1 [125/14]	
2000 to 10000		Cc1ccc(OC2C(O)C(O)C(Oc3ccc(C)cn3)C(Cc3ccccc3)S(=O)(=O)C2Cc2ccccc2)nc1 (centres unmarked) [125/21]	
< 2000	< 2000	Nc1ccc(OC2C(O)C(O)C(Oc3ccc(N)c(C(F)(F)F)c3)C(Cc3ccccc3)S(=O)(=O)C2Cc2ccccc2)cc1C(F)(F)F (centres unmarked) [125/28]	
10000 to 50000		Cc1cccc(O[C@@H]2[C@H](O)[C@@H](O)[C@@H](Oc3cccc(C)n3)[C@@H](Cc3ccccc3)S(=O)(=O)[C@@H]2Cc2ccccc2)n1 [128/31]	
10000 to 50000		Cc1ccnc(O[C@@H]2[C@H](O)[C@@H](O)[C@@H](Oc3cc(C)ccn3)[C@@H](Cc3ccccc3)S(=O)(=O)[C@@H]2Cc2ccccc2)c1 [128/35]	
